Article PMC11249646, “Small-Molecule Disruptors of the Interaction between Calcium- and Integrin-Binding Protein 1 and Integrin αIIbβ3 as Novel Antiplatelet Agents” (ACS Pharmacology & Translational Science, 2024)
Where two headings read alike, the source gives them in different places.

Legend:
[1] = molecular target: T1, GST-CIB1 : F-scrambled peptide (Homo sapiens, UniProt Q99828); experiment: FP scrambled-peptide counter screen, 1536-well format; type: binding; conditions: for Curve Class (counterscreen) / COUNTERSCREEN Curve Class: qHTS curve class; for IC50: read-out: IC50 [μM] (counterscreen); for COUNTERSCREEN Efficacy (%) / COUNTERSCREEN Confirm? / COUNTERSCREEN Curve Class: scrambled-peptide counterscreen
T1 construct: made in house; host or cells: BL-21 plus RIL cells (E. coli)
T1 sequence (Q99828 1-191): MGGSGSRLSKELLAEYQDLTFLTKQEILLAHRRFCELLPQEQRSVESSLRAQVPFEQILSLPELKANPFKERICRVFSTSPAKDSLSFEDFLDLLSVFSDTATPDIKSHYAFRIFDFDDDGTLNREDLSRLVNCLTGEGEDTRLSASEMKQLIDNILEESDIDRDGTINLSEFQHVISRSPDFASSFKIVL

[2] = molecular target: T2, CIB1 and αIIb interaction (CIB1-GST : F-αIIb peptide) (Homo sapiens, UniProt Q99828); experiment: FP assay, 1536-well qHTS format (primary and confirmatory screen); type: binding; conditions: for Curve Class (confirmatory screen) / CONFIRMATORY SCREEN Curve Class: qHTS curve class
T2 construct: made in house; host or cells: BL-21 plus RIL cells (E. coli)
T2 sequence (Q99828 1-191): T1 sequence (Q99828 1-191)

[3] = Table S3, counterscreen, YES/NO call
[4] = Table S3, counterscreen, a negative sign marks inhibitory curves
[5] = Table S3, counterscreen, negative = inhibition
[6] = Table S3, confirmatory screen, a negative sign marks inhibitory curves
[7] = Table S3, confirmatory screen, negative = inhibition
[8] = qHTS FP screen hits, Table S2, negative = inhibition
[9] = qHTS FP screen hits, Table S2, one class per curve where COUNT > 1, negative sign = inhibitory curve
[10] = qHTS FP screen hits, Table S2, read-out: IC50
[11] = qHTS primary screen hits, Table S2, negative = inhibition
[12] = qHTS primary screen hits, Table S2, negative sign = inhibitory curve, several classes where COUNT > 1
[13] = qHTS primary screen hits, Table S2, read-out: IC50
[14] = confirmatory screen, YES/NO call
[15] = confirmatory screen, negative sign = inhibitory curve
[16] = confirmatory screen, negative = inhibition
[17] = qHTS primary screen hits, Table S2, negative sign = inhibitory curve
[18] = counterscreen, negative sign = inhibitory curve
[19] = confirmatory screen, read-out: IC50 [μM] (confirmatory screen)

Row | SMILES | Curve Class (counterscreen) [1, 4] | Efficacy (%) (counterscreen) [1, 5] | IC50 ([1]; Table S3, counterscreen) [µM] | Curve Class (confirmatory screen) [2, 6] | Efficacy (%) (confirmatory screen) [2, 7] | Efficacy (%) [2, 11] [%] | Curve Class [2, 12] | IC50 [2, 13] [µM] | also measured
1 | CN(C)CC1CCCN(C2CCN(C(=O)c3cccc(-c4cc(O)c5ncccc5c4)c3)CC2)C1.O=C(O)C(F)(F)F (stereo not shown) [NCGC00247737-01] | -2.2 | -46 | 39.8 | 4 | -41 |  |  |  | Confirm? (counterscreen) [1, 3]: YES; Efficacy (%) [2, 8]: -45%; Curve Class [2, 9]: -1.2; IC50 [2, 10]: 22.4 µM
2 | CN(C)CCCCCCNC(=O)c1cccc(-c2cc(O)c3ncccc3c2)c1.O=C(O)C(F)(F)F [NCGC00247743-01] | -2.4 | -55 | 44.7 | 4 | -35 | -33 | -1.2 | 22.4 | Confirm? (counterscreen) [1, 3]: YES
3 | O=C(Nc1nc(-c2ccccc2)cs1)c1ccccc1NS(=O)(=O)c1ccc(F)cc1.O=C(O)C(F)(F)F [NCGC00247844-02] |  | 102 | 50.1 | 3 | 48 | -24 | -1.4 | 17.8 | 
4 | O=C(Cc1ccc(Cl)c(Cl)c1)Nc1ccc(S(=O)(=O)Nc2nncs2)cc1.O=C(O)C(F)(F)F [NCGC00248349-02] |  |  |  |  |  | -24 |  | 11.2 | COUNTERSCREEN Efficacy (%) [1]: 12%; COUNTERSCREEN Confirm? ([1]; YES/NO call): YES; COUNTERSCREEN Curve Class [1]: 4; CONFIRMATORY SCREEN Confirm? [2, 14]: YES; CONFIRMATORY SCREEN Curve Class [2, 15]: -1.4; CONFIRMATORY SCREEN Efficacy (%) [2, 16]: -31%; IC50 ([2]; confirmatory screen, read-out: CONFIRMATORY SCREEN IC50): 12.6 µM; Curve Class [2, 17]: -1.4
5 | O=C(Cc1ccc(Cl)c(Cl)c1)Nc1ccc(S(=O)(=O)Nc2cccc(C(=O)O)c2)cc1.O=C(O)C(F)(F)F [NCGC00248362-01] |  |  |  |  |  | -20 |  | 12.6 | COUNTERSCREEN Efficacy (%) [1]: 26%; COUNTERSCREEN Confirm? ([1]; YES/NO call): YES; COUNTERSCREEN Curve Class [1]: 4; CONFIRMATORY SCREEN Confirm? [2, 14]: YES; CONFIRMATORY SCREEN Curve Class [2, 15]: -1.4; CONFIRMATORY SCREEN Efficacy (%) [2, 16]: -27%; Curve Class [2, 17]: -1.4
6 | O=C(Cc1ccc(Cl)c(Cl)c1)Nc1ccc(S(=O)(=O)Nc2cnccn2)cc1.O=C(O)C(F)(F)F [NCGC00248365-02] |  |  |  |  |  |  |  |  | Efficacy (%) (counterscreen) ([1]; counterscreen): -24%; Confirm? (counterscreen) ([1]; counterscreen, YES/NO): YES; Curve Class (counterscreen) [1, 18]: 4; Efficacy (%) (confirmatory screen) ([2]; confirmatory screen): -30%; Confirm? (confirmatory screen) ([2]; confirmatory screen, YES/NO): YES; Curve Class (confirmatory screen) [2, 15]: -1.4; Efficacy (%) [2, 8]: -26%; IC50 [2, 10]: 17.8 µM
7 | Cc1c2c(=O)n(-c3ccccc3)[nH]c2cc(=O)n1-c1cccnc1.O=C(O)C(F)(F)F [NCGC00248472-01] | -2.2 | -60 | 39.8 | 4 | -23 |  |  |  | Confirm? (counterscreen) [1, 3]: YES; Efficacy (%) [2, 8]: -31%; IC50 [2, 10]: 39.8 µM
8 | O=C(c1cc(O)c(O)c(O)c1)c1ccc(O)c(O)c1O [NCGC00249050-02] | -1.1 | -99 | 25.1 | -2.1 | -86 | -42 | -2.2 | 39.8 | Confirm? (confirmatory screen) ([2]; Table S3, confirmatory screen, YES/NO call): YES; IC50 ([2]; Table S3, confirmatory screen, read-out: IC50 [μM] (confirmatory screen)): 25.1 µM
9 | CCN1CCN(c2ccc(Nc3ccc(-c4ccc(C(N)=O)cc4)n4ncnc34)cc2)CC1.O=C(O)C(F)(F)F [NCGC00249351-01] |  |  |  |  |  |  |  |  | Efficacy (%) (counterscreen) ([1]; counterscreen): -68%; Curve Class (counterscreen) [1, 18]: -2.2; IC50 ([1]; counterscreen): 50.1 µM; Efficacy (%) (confirmatory screen) ([2]; confirmatory screen): -64%; Confirm? (confirmatory screen) ([2]; confirmatory screen, YES/NO): YES; Curve Class (confirmatory screen) [2, 15]: -2.4; IC50 [2, 19]: 22.4 µM; Efficacy (%) [2, 8]: -39%; Curve Class [2, 9]: -2.2; IC50 [2, 10]: 35.5 µM
10 | O=C(Nc1ccc(S(=O)(=O)N2CCOCC2)cc1)c1cc(Cl)ccc1NS(=O)(=O)c1ccc(Cl)s1.O=C(O)C(F)(F)F [NCGC00249417-01] |  | 163 | 79.4 | 4 | -31 |  |  |  | 
11 | O=C(O)C(F)(F)F.c1ccc(-n2ccc(-c3nnc4n3CCCCC4)c2)cc1 [NCGC00249645-01] |  |  |  |  |  |  |  |  | Efficacy (%) (counterscreen) ([1]; counterscreen): -62%; Curve Class (counterscreen) [1, 18]: -3; IC50 ([1]; counterscreen): 89.1 µM; Efficacy (%) (confirmatory screen) ([2]; confirmatory screen): -104%; Confirm? (confirmatory screen) ([2]; confirmatory screen, YES/NO): YES; Curve Class (confirmatory screen) [2, 15]: -2.1; IC50 [2, 19]: 50.1 µM; Efficacy (%) [2, 8]: -91%; Curve Class [2, 9]: -2.2; IC50 [2, 10]: 79.4 µM
12 | CC(C)(O)CCc1ccc(OCc2cc(-c3cccc(OC(F)F)c3)c3ncccc3c2)cc1 [NCGC00249759-02] | 4 | -28 |  | 4 | -25 | -59 | -2.2 | 24.1 | 
13 | Cc1ccc([N+](=O)[O-])[c]2c1[O][Hg]2 [NCGC00249897-01] |  | 111 |  | 4 | 0 | -49 | -1.4 | 3.5 | 
14 | COC(=O)c1cc(Cl)ccc1NS(=O)(=O)C(F)(F)F [NCGC00249937-01] | 4 | -16 |  | 4 | 12 | -64 | -2.2 | 44.7 | 
15 | Cc1ccc(C)n1-c1sccc1C(=O)O [NCGC00253437-01] |  |  |  |  |  | -59 | -2.2 | 44.7 | Efficacy (%) (counterscreen) ([1]; counterscreen): -36%; Confirm? (counterscreen) ([1]; counterscreen, YES/NO): YES; Curve Class (counterscreen) [1, 18]: -1.2; IC50 ([1]; counterscreen): 7.9 µM; Efficacy (%) (confirmatory screen) ([2]; confirmatory screen): -97%; Confirm? (confirmatory screen) ([2]; confirmatory screen, YES/NO): YES; Curve Class (confirmatory screen) [2, 15]: -1.1; IC50 [2, 19]: 22.4 µM
16 | N#Cc1ccc(NS(=O)(=O)c2ccc(NC(=O)Cc3ccc(Cl)c(Cl)c3)cc2)cc1.O=C(O)C(F)(F)F [NCGC00253445-01] |  | 202 | 70.8 | 2.3 | 146 |  |  |  | 
17 | Cc1cnc(-c2ccccc2C(C)C)nc1NCc1ccc(-c2ccc(F)nc2)cc1.O=C(O)C(F)(F)F [NCGC00253893-01] |  |  |  |  |  | -52 | -2.4 | 50.1 | Efficacy (%) (counterscreen) ([1]; counterscreen): -90%; Curve Class (counterscreen) [1, 18]: -2.1; IC50 ([1]; counterscreen): 44.7 µM; Efficacy (%) (confirmatory screen) ([2]; confirmatory screen): -124%; Confirm? (confirmatory screen) ([2]; confirmatory screen, YES/NO): YES; Curve Class (confirmatory screen) [2, 15]: -2.1; IC50 [2, 19]: 112 µM
